# Experimental data published in patent publication US20250281610A1, “P2RY2 ACTIVITY MODULATORS” (Deutsches Krebsforschungszentrum Stiftung des öffentlichen …, priority 2022, published 2025).
# How the values were obtained:
# [1] = test system: MART-1-specific TCR transduced T cells cultured with MART-1-epitope transduced BxPC3 cells; experiment: T cell activation markers in co-culture of MART-1-specific TCR-T cells with MART-1+ BxPC3 cells; type: cell-based, human; settings: single agent: 5 μM AR-C, 10 μg/ml atezolizumab or 10 μg/ml durvalumab, 6-24 hours, CD8+ MART-1-specific TCR+ population (FIG. 10)
# Source text: FIG. 10. […] Untreated cells served as the control.
# (§1) MART-1 specific T cells were generated as described (Mezzadra et al., Nature 549, 106-110 (2017); Jorritsma et al., Blood 110 (10): 3564-3572. (2007)). To generate CD33-specific chimeric antigen receptor (CAR) T cells, a CD33Hul95-CD28Z CAR (described in WO 2019/178382) cassette was cloned into a retroviral vector, and the resulting virus was used to transduce T cells as described (Mezzadra et al., Nature 549, 106-110 (2017); Jorritsma et al., Blood 110 (10): 3564-3572. (2007)).
# MART1-specific CD8+ T cells and MART1 epitope-expressing cancer cells were mixed at a ratio of 1:16 to 1:4. […] T cell activation was assessed by surface staining with anti-CD137-BV421 (4-1BB, Biolegend), anti-CD69-APC/Fire™ 750 (FN50, Biolegend), anti-CD25-AF700 (BC96, Biolegend) antibodies and intracellular staining with anti-IL-2-PE/Cy7 (MQ1-17H12, Biolegend), anti-IFN-7-BV421 (4S.B3, Biolegend), anti-TNF-α-BV785 (MAb11, Biolegend) antibodies, followed by flow cytometry analysis. For intracellular staining, brefeldin A (Biolegend) was added to the cell culture medium 4 h before cells were harvested. The viability of cancer cells that grow in suspension including THP-1 cells was assessed by flow cytometry-based absolute cell counting using AccuCount beads (Spherotech). For adherent cancer cells including BxPC3 and MCF7, the cell viability was quantified using CellTiter-Blue Cell Viability Assay (Promega).
# [2] = test system: BxPC3 cells; experiment: Viability of BxPC3 cells in co-culture with MART-1-specific TCR-T cells (CellTiter-Blue); type: cell-based, human; settings: single agent: 5 μM AR-C, 10 μg/ml atezolizumab or 10 μg/ml durvalumab, 6-24 hours (FIG. 11)
# Source text: FIG. 11. […] Untreated cells served as the control.
# as §1
# MART1-specific CD8+ T cells and MART1 epitope-expressing cancer cells were mixed at a ratio of 1:16 to 1:4. Next, cells were centrifugated at 1,600 g for 3 min and incubated at 37° C. and 5% CO2 for 12-72 hours. T cell activation was assessed by surface staining with anti-CD137-BV421 (4-1BB, Biolegend), anti-CD69-APC/Fire™ 750 (FN50, Biolegend), anti-CD25-AF700 (BC96, Biolegend) antibodies and intracellular staining with anti-IL-2-PE/Cy7 (MQ1-17H12, Biolegend), anti-IFN-7-BV421 (4S.B3, Biolegend), anti-TNF-α-BV785 (MAb11, Biolegend) antibodies, followed by flow cytometry analysis. For intracellular staining, brefeldin A (Biolegend) was added to the cell culture medium 4 h before cells were harvested. The viability of cancer cells that grow in suspension including THP-1 cells was assessed by flow cytometry-based absolute cell counting using AccuCount beads (Spherotech). For adherent cancer cells including BxPC3 and MCF7, the cell viability was quantified using CellTiter-Blue Cell Viability Assay (Promega).
substance,measurement,setting,value
durvalumab: Blocking antibody of the PD-L1-PD-1 immune checkpoint,expression of CD25 on T cells,[1],elevated
same,expression of CD69 on T cells,[1],elevated
same,expression of CD137 on T cells,[1],elevated
same,viability of BxPC3 cells,[2],reduced
